Columns and labels:
[1] = Inhibition of beta-lactamase AmpC (unknown origin) by UV-Vis spectrophotometry
[2] = Competitive inhibition of beta-lactamase AmpC (unknown origin) by Lineweaver-Burk plot analysis
[3] = Reversible competitive inhibition of beta-lactamase AmpC (unknown origin)

SMILES | Ki [1] [µM] | other results
O=C(O)c1ccc(NS(=O)(=O)c2ccsc2C(=O)O)cc1 | 1.7 | 
Cc1ccc(CNS(=O)(=O)c2ccsc2C(=O)O)cc1 | 58 | 
O=C(O)c1sccc1S(=O)(=O)NCc1ccc(Cl)cc1 | 112 | 
O=C(O)c1ccc(CNS(=O)(=O)c2ccsc2C(=O)O)cc1 | 18 | 
O=C(O)c1ccc(CCNS(=O)(=O)c2ccsc2C(=O)O)cc1 |  | Ki [2]: 26 µM
O=C(O)c1ccc(CCCNS(=O)(=O)c2ccsc2C(=O)O)cc1 | 19 | 
O=C(O)c1sccc1S(=O)(=O)Nc1ccc(Cl)cc1 |  | Ki [3]: 26 µM
